The source of these data is ChEMBL document CHEMBL6127103, “Benzoxaborinine, New Chemotype for Carbonic Anhydrase Inhibition: Ex Novo Synthesis, Crystallography, In Silico Studies, and Anti-Melanoma Cell Line Activity” (J Med Chem, 2024).

In experiment [1] the target is T1, Carbonic anhydrase 9 (Homo sapiens, UniProt Q16790). In words: Inhibition of human carbonic anhydrase IX catalytic domain assessed as inhibition constant incubated for 15 to 360 mins by stopped-flow CO2 hydration assay.
In experiment [2] the target is T2, Carbonic anhydrase 12 (Homo sapiens, UniProt O43570). In words: Inhibition of human carbonic anhydrase XII catalytic domain assessed as inhibition constant incubated for 15 to 360 mins by stopped-flow CO2 hydration assay.
In experiment [3] the target is T3, Carbonic anhydrase 2 (Homo sapiens, UniProt P00918). In words: Inhibition of human carbonic anhydrase II assessed as inhibition constant incubated for 15 mins by stopped-flow carbon dioxide hydration assay.
In experiment [4] the target is T1, Carbonic anhydrase 9.
Description: Inhibition of human carbonic anhydrase IX assessed as inhibition constant incubated for 15 mins by stopped-flow carbon dioxide hydration assay
The target of experiment [5] is T2, Carbonic anhydrase 12. Nature of the experiment: Inhibition of human carbonic anhydrase XII assessed as inhibition constant incubated for 15 mins by stopped-flow carbon dioxide hydration assay.
In experiment [6] the target is T4, Carbonic anhydrase 1 (Homo sapiens, UniProt P00915). Nature of the experiment: Inhibition of human carbonic anhydrase I assessed as inhibition constant incubated for 15 mins by stopped-flow carbon dioxide hydration assay.
For experiment [7], the system named is A-375. In words: Anti-melanoma activity against human A-375 cells assessed as inhibition of cell proliferation at 200 uM incubated for 72 hrs by MACSQUant analyzer. Format: functional, cell-based.
Experiment [8] has as its system A-375. In words: Anti-melanoma activity against human A-375 cells assessed as inhibition of cell proliferation incubated for 72 hrs by MACSQUant analyzer. It is filed as functional, cell-based. The following applies: A-375, 72 h.
Experiment [9] has as its system SK-MEL-2. Nature of the experiment: Anti-melanoma activity against human SK-MEL-2 cells assessed as inhibition of cell proliferation at 200 uM incubated for 72 hrs by MACSQUant analyzer. It is filed as functional, cell-based.
For experiment [10], the system named is A2058. Nature of the experiment: Anti-melanoma activity against human A2058 cells assessed as inhibition of cell proliferation at 200 uM incubated for 72 hrs by MACSQUant analyzer. It is filed as functional, cell-based.
Experiment [11] deals with T4, Carbonic anhydrase 1. In words: Inhibition of human carbonic anhydrase I assessed as inhibition constant incubated for 15 to 360 mins by stopped-flow CO2 hydration assay.
Experiment [12] deals with SK-MEL-2. Nature of the experiment: Anti-melanoma activity against human SK-MEL-2 cells assessed as inhibition of cell proliferation at 10 to 300 uM incubated for 72 hrs by MACSQUant analyzer. Format: functional, cell-based. The following applies: dose 10-300 µM.
Experiment [13] has as its system A2058. In words: Anti-melanoma activity against human A2058 cells assessed as inhibition of cell proliferation at 10 to 300 uM incubated for 72 hrs by MACSQUant analyzer. It is filed as functional, cell-based. The conditions noted are these: dose 10-300 µM.
The test system of experiment [14] is A-375. In words: Anti-melanoma activity against human A-375 cells assessed as inhibition of cell proliferation at 10 to 300 uM incubated for 72 hrs by MACSQUant analyzer. Format: functional, cell-based. The following applies: dose 10-300 µM.
The target of experiment [15] is T3, Carbonic anhydrase 2. Nature of the experiment: Inhibition of human carbonic anhydrase II assessed as inhibition constant incubated for 15 to 360 mins by stopped-flow CO2 hydration assay.
Experiment [16] has as its system A2058. In words: Anti-melanoma activity against human A2058 cells assessed as inhibition of cell proliferation at 100 uM incubated for 72 hrs by MACSQUant analyzer. Format: functional, cell-based.
Experiment [17] has as its system A-375. In words: Anti-melanoma activity against human A-375 cells assessed as inhibition of cell proliferation at 100 uM incubated for 72 hrs by MACSQUant analyzer. It is filed as functional, cell-based.
The subject of experiment [18] is SK-MEL-2. In words: Anti-melanoma activity against human SK-MEL-2 cells assessed as inhibition of cell proliferation at 100 uM incubated for 72 hrs by MACSQUant analyzer. It is filed as functional, cell-based.

Calls of active or inactive are those of the source. The calls are words filed in the database; no cut-off is given here.

T2 sequence (O43570 whole entry, the tested form may be a part): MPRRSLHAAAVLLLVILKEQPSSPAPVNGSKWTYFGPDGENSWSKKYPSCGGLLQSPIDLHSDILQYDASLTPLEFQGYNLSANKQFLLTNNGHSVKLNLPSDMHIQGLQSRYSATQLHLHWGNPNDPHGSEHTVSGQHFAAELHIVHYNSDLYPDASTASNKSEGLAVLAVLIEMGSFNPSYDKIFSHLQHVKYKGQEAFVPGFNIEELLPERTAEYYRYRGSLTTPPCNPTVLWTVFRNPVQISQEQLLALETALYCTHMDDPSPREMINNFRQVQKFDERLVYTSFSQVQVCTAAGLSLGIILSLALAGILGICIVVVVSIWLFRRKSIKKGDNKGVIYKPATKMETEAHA
T4 sequence (P00915 whole entry): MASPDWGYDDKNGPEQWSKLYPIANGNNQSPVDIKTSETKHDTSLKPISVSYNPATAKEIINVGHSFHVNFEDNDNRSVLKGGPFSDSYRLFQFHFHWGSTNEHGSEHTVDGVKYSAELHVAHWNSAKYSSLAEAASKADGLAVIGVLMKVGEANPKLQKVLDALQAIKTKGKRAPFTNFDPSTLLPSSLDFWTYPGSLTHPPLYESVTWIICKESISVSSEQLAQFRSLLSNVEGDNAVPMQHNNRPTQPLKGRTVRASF

Usually Ki stands for a measure of affinity in units of concentration, obtained from inhibition or displacement. As for `OB1OCc2ccc(NC(=S)Nc3ccc(F)cc3)cc21`, the Ki on Carbonic anhydrase 9 [1] came to 0.336 µM; at Carbonic anhydrase 12 [2], 0.089 µM.

For the molecule `OB1OCCc2ccc(NC(=S)Nc3ccc(F)cc3)cc21`, the Ki at Carbonic anhydrase 2 [3] came out at 0.434 µM; on Carbonic anhydrase 9 [4], 0.0885 µM; at Carbonic anhydrase 12 [5] it was 0.151 µM; on Carbonic anhydrase 1 [6], 1.59 µM.

By IC50 is commonly meant the concentration needed to halve the response being measured. With `NS(=O)(=O)c1ccc(NC(=O)Nc2ccc(F)cc2)cc1` [SLC-0111], the result in the experiment on A-375 [7], in the experiment on SK-MEL-2 [9] and with A2058 [10] was Active. Also, the IC50 with A-375 [8] turned out to be 111 µM.

Consider `OB1OCc2ccc(NC(=S)NCc3ccccc3)cc21`, for which the Ki at Carbonic anhydrase 9 [1] came out at 0.61 µM; at Carbonic anhydrase 12 [2], 0.042 µM; at Carbonic anhydrase 1 [11], 0.38 µM.

As to `OB1OCCc2ccccc21` [BENZOXABORIN], the Ki was 1.95 µM at Carbonic anhydrase 2 [3], 9.85 µM at Carbonic anhydrase 9 [4], 0.754 µM on Carbonic anhydrase 12 [5] and 3.87 µM at Carbonic anhydrase 1 [6].

Consider `O=C(Nc1ccc(C(F)(F)F)cc1)Nc1ccc2c(c1)B(O)OCC2`, for which the Ki at Carbonic anhydrase 2 [3] came to 0.306 µM; at Carbonic anhydrase 9 [4] it was 0.139 µM; at Carbonic anhydrase 12 [5] it was 0.354 µM; on Carbonic anhydrase 1 [6], 20.7 µM.

`O=C(Nc1ccccc1)Nc1ccc2c(c1)B(O)OC2`: the results for the Ki at Carbonic anhydrase 9 [1] and on Carbonic anhydrase 12 [2] were 1.06 µM and 0.24 µM, respectively.

As for `O=C(Nc1ccccc1)Nc1ccc2c(c1)B(O)OCC2`, the Ki came out at 0.262 µM at Carbonic anhydrase 2 [3], 0.268 µM at Carbonic anhydrase 9 [4], 0.21 µM on Carbonic anhydrase 12 [5] and 19 µM at Carbonic anhydrase 1 [6].

Take `OB1OCc2ccccc21` [BENZOXABOROLE]: the Ki on Carbonic anhydrase 9 [1] and on Carbonic anhydrase 12 [2] was greater than 50 µM each time.

Turning to `O=[N+]([O-])c1ccc2c(c1)B(O)OC2`, the Ki stood at 0.094 µM at Carbonic anhydrase 9 [1] and 0.092 µM on Carbonic anhydrase 12 [2].

`O=[N+]([O-])c1ccc(NC(=S)Nc2ccc3c(c2)B(O)OCC3)cc1`: the Ki on Carbonic anhydrase 2 [3] was found to be 0.452 µM; on Carbonic anhydrase 9 [4] it was 0.0632 µM; on Carbonic anhydrase 12 [5], 0.0464 µM; at Carbonic anhydrase 1 [6], 0.523 µM.

In the case of `Nc1ccc2c(c1)B(O)OC2`, the Ki at Carbonic anhydrase 9 [1] was determined as 0.813 µM; on Carbonic anhydrase 12 [2], 0.64 µM.

For the molecule `O=C(NCc1ccccc1)Nc1ccc2c(c1)B(O)OCC2`, the result in the experiment with SK-MEL-2 [12], in the experiment with A2058 [13] and in the experiment with A-375 [14] was Active. Besides, the Ki turned out to be 0.112 µM on Carbonic anhydrase 2 [3], 0.163 µM at Carbonic anhydrase 9 [4], 0.0807 µM at Carbonic anhydrase 12 [5] and 0.637 µM at Carbonic anhydrase 1 [6]. Moreover, the IC50 in the experiment on A-375 [8] was 31.6 µM.

For `OB1OCCc2ccc(NC(=S)NCc3ccccc3)cc21`, the outcome in the experiment on SK-MEL-2 [12], with A2058 [13] and with A-375 [14] was Active. For the same molecule, the Ki on Carbonic anhydrase 2 [3] turned out to be 0.0417 µM; at Carbonic anhydrase 9 [4] it was 0.0528 µM; on Carbonic anhydrase 12 [5], 0.069 µM; on Carbonic anhydrase 1 [6], 0.614 µM. Moreover, the IC50 with A-375 [8] was determined as 126 µM.

Turning to `OB1OCc2ccc(NC(=S)Nc3ccccc3)cc21`, the Ki at Carbonic anhydrase 9 [1] was 0.436 µM; on Carbonic anhydrase 12 [2], 0.076 µM; on Carbonic anhydrase 2 [15], 1.15 µM; at Carbonic anhydrase 1 [11] it was 0.548 µM.

With `OB1OCCc2ccc(NC(=S)Nc3ccc(C(F)(F)F)cc3)cc21`, the Ki on Carbonic anhydrase 2 [3] is 0.0449 µM; at Carbonic anhydrase 9 [4], 0.349 µM; at Carbonic anhydrase 12 [5] it was 0.082 µM; on Carbonic anhydrase 1 [6] it was 16.8 µM.

`O=[N+]([O-])c1ccc2c(c1)B(O)OCC2`: the Ki on Carbonic anhydrase 2 [3] was determined as 0.983 µM; at Carbonic anhydrase 9 [4], 0.025 µM; at Carbonic anhydrase 12 [5] it was 0.92 µM; at Carbonic anhydrase 1 [6], 44.5 µM.

For `OB1OCCc2ccc(NC(=S)Nc3ccccc3)cc21`, the Ki is 0.295 µM at Carbonic anhydrase 2 [3], 0.312 µM on Carbonic anhydrase 9 [4], 0.191 µM on Carbonic anhydrase 12 [5] and 0.798 µM on Carbonic anhydrase 1 [6].

As for `O=C(NCc1ccccc1)Nc1ccc2c(c1)B(O)OC2`, the Ki at Carbonic anhydrase 9 [1] was 0.925 µM; on Carbonic anhydrase 12 [2], 0.184 µM.

Turning to `O=C(Nc1ccc(F)cc1)Nc1ccc2c(c1)B(O)OC2`, the Ki on Carbonic anhydrase 9 [1] amounted to 0.843 µM; at Carbonic anhydrase 12 [2] it was 0.175 µM.

Regarding `Nc1ccc2c(c1)B(O)OCC2`, the Ki on Carbonic anhydrase 2 [3] was 2.92 µM; on Carbonic anhydrase 9 [4], 0.045 µM; at Carbonic anhydrase 12 [5], 2.31 µM; on Carbonic anhydrase 1 [6] it was greater than 100 µM.

As for `O=C(Nc1ccc(C(F)(F)F)cc1)Nc1ccc2c(c1)B(O)OC2`, the Ki is 0.845 µM on Carbonic anhydrase 9 [1] and 0.093 µM on Carbonic anhydrase 12 [2].

As to `O=C(Nc1ccc(F)cc1)Nc1ccc2c(c1)B(O)OCC2`, the inhibition constant (Ki) at Carbonic anhydrase 2 [3] was found to be 0.0859 µM; at Carbonic anhydrase 9 [4], 0.451 µM; at Carbonic anhydrase 12 [5], 0.278 µM; at Carbonic anhydrase 1 [6] it was 3.49 µM. The outcome in the experiment on A2058 [16], with A-375 [17] and with SK-MEL-2 [18] was Active. The IC50 with A-375 [8] is 132 µM.
